Laboratory results as given in PubChem BioAssay AID248 (DTP/NCI, 2004).
Values joined by “and” are separate entries in the source; they are usually repeats but may differ in a detail not shown here. Equal values may be shown once. Inconclusive results and toxic doses are left out. Cut-off read from the data, not from the text of the source: active = T/C of 150% or more; inactive = T/C below 125%.

System: L1210 leukemia ip in BDF1 mice, survival T/C
Assay: NCI In Vivo Anticancer Drug Screen. Data for tumor model L1210 Leukemia (intraperitoneal) in B6D2F1 (BDF1) mice
Conditions: endpoint: mean survival time, higher = longer survival
In short: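 Antitumor effect is assessed in tumor-bearing animals. Survival in the compound arm is compared with a vehicle-dosed control arm and expressed as their quotient.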

[1] = dose: 100.0 mg/kg/injection, schedule: Q04DX003 (ip), vehicle: Klucel (hydroxypropylcellulose) (HPC)
[2] = dose: 100.0 mg/kg/injection, schedule: Q01DX001 (ip), vehicle: saline
[3] = dose: 200.0 mg/kg/injection, schedule: Q01DX001 (ip), vehicle: saline
[4] = dose: 400.0 mg/kg/injection, schedule: Q01DX001 (ip), vehicle: saline
[5] = dose: 100.0 mg/kg/injection, schedule: Q01DX009 (ip), vehicle: saline with Tween-80
[6] = dose: 100.0 mg/kg/injection, schedule: Q04DX003 (ip), vehicle: saline with Tween-80
[7] = dose: 200.0 mg/kg/injection, schedule: Q01DX009 (ip), vehicle: saline with Tween-80
[8] = dose: 200.0 mg/kg/injection, schedule: Q04DX003 (ip), vehicle: saline with Tween-80
[9] = dose: 400.0 mg/kg/injection, schedule: Q01DX009 (ip), vehicle: saline with Tween-80
[10] = dose: 400.0 mg/kg/injection, schedule: Q04DX003 (ip), vehicle: saline with Tween-80
[11] = dose: 200.0 mg/kg/injection, schedule: Q04DX003 (ip), vehicle: Klucel (hydroxypropylcellulose) (HPC)
[12] = dose: 400.0 mg/kg/injection, schedule: Q04DX003 (ip), vehicle: Klucel (hydroxypropylcellulose) (HPC)

Measured: T/C

CCc1cnccc1C
inactive: dose: 20.0 mg/kg/injection, schedule: Q04DX003 (ip), vehicle: Klucel (hydroxypropylcellulose) (HPC) 108 % of control | dose: 25.0 mg/kg/injection, schedule: Q01DX009 (ip), vehicle: Klucel (hydroxypropylcellulose) (HPC) 102 % of control | dose: 40.0 mg/kg/injection, schedule: Q04DX003 (ip), vehicle: Klucel (hydroxypropylcellulose) (HPC) 102 % of control | dose: 50.0 mg/kg/injection, schedule: Q01DX009 (ip), vehicle: Klucel (hydroxypropylcellulose) (HPC) 107 % of control | dose: 80.0 mg/kg/injection, schedule: Q04DX003 (ip), vehicle: Klucel (hydroxypropylcellulose) (HPC) 108 % of control | dose: 100.0 mg/kg/injection, schedule: Q01DX009 (ip), vehicle: Klucel (hydroxypropylcellulose) (HPC) 111 % of control | [1] 104 % of control

Cc1cc(C)c(NC(=O)c2ccc(Cl)cc2Cl)c(C)c1
inactive: dose: 100.0 mg/kg/injection, schedule: Q04DX002 (ip), vehicle: Klucel (hydroxypropylcellulose) (HPC) 95 % of control | dose: 200.0 mg/kg/injection, schedule: Q04DX002 (ip), vehicle: Klucel (hydroxypropylcellulose) (HPC) 106 % of control | dose: 400.0 mg/kg/injection, schedule: Q04DX002 (ip), vehicle: Klucel (hydroxypropylcellulose) (HPC) 95 % of control

COc1ccc(CN2CCCN(Cc3ccc(OC)cc3OC)C2c2cc(Br)ccc2O)c(OC)c1
inactive: dose: 50.0 mg/kg/injection, schedule: Q01DX001 (ip), vehicle: saline 97 % of control | [2] 90 % of control | [3] 92 % of control | [4] 92 % of control

NC(N)=N/N=C(/CCC(=O)O)C(=O)O
inactive: dose: 15.0 mg/kg/injection, schedule: Q01DX Z (ip), vehicle: carboxymethylcellulose (CMC) 100 % of control | dose: 30.0 mg/kg/injection, schedule: Q01DX Z (ip), vehicle: carboxymethylcellulose (CMC) 107 % of control | dose: 60.0 mg/kg/injection, schedule: Q01DX Z (ip), vehicle: carboxymethylcellulose (CMC) 100 % of control and 104 % of control | dose: 60.0 mg/kg/injection, schedule: Q01DX Z (oral), vehicle: carboxymethylcellulose (CMC) 104 % of control | dose: 60.0 mg/kg/injection, schedule: Q01DX Z (oral), vehicle: saline 95 % of control | dose: 120.0 mg/kg/injection, schedule: Q01DX Z (ip), vehicle: carboxymethylcellulose (CMC) 101 % of control and 106 % of control | dose: 120.0 mg/kg/injection, schedule: Q01DX Z (oral), vehicle: carboxymethylcellulose (CMC) 98 % of control | dose: 120.0 mg/kg/injection, schedule: Q01DX Z (oral), vehicle: saline 96 % of control | dose: 240.0 mg/kg/injection, schedule: Q01DX Z (ip), vehicle: carboxymethylcellulose (CMC) 98 % of control | dose: 240.0 mg/kg/injection, schedule: Q01DX Z (oral), vehicle: carboxymethylcellulose (CMC) 107 % of control | dose: 240.0 mg/kg/injection, schedule: Q01DX Z (oral), vehicle: saline 98 % of control | dose: 480.0 mg/kg/injection, schedule: Q01DX Z (oral), vehicle: carboxymethylcellulose (CMC) 98 % of control | dose: 480.0 mg/kg/injection, schedule: Q01DX Z (oral), vehicle: saline 98 % of control | dose: 960.0 mg/kg/injection, schedule: Q01DX Z (oral), vehicle: carboxymethylcellulose (CMC) 98 % of control and 113 % of control | dose: 960.0 mg/kg/injection, schedule: Q01DX Z (oral), vehicle: saline 101 % of control

F[Si](c1cccc2ccccc12)(c1cccc2ccccc12)c1cccc2ccccc12
inactive: [5] 93 % of control | [6] 92 % of control | [7] 87 % of control | [8] 90 % of control | [9] 103 % of control | [10] 97 % of control

O=C(Nc1ccc(Nc2ccccc2)cc1)Nc1ccc(F)c(Cl)c1
inactive: [1] 92 % of control | [11] 94 % of control | [12] 94 % of control

CCCCCC(C(C)=O)(C1=NC(C)(C)CC(C)O1)c1ccccc1 (configuration not stated)
inactive: dose: 100.0 mg/kg/injection, schedule: Q04DX003 (ip), vehicle: saline sonified 103 % of control | dose: 200.0 mg/kg/injection, schedule: Q04DX003 (ip), vehicle: saline sonified 120 % of control | dose: 400.0 mg/kg/injection, schedule: Q04DX003 (ip), vehicle: saline sonified 111 % of control

NCCc1nc2ccccc2[nH]1
inactive: dose: 15.0 mg/kg/injection, schedule: Q01DX Z (ip), vehicle: saline 93 % of control | dose: 30.0 mg/kg/injection, schedule: Q01DX Z (ip), vehicle: saline 98 % of control | dose: 60.0 mg/kg/injection, schedule: Q01DX Z (ip), vehicle: saline 97 % of control | dose: 120.0 mg/kg/injection, schedule: Q01DX Z (ip), vehicle: saline 95 % of control | dose: 240.0 mg/kg/injection, schedule: Q01DX Z (ip), vehicle: saline 103 % of control | dose: 480.0 mg/kg/injection, schedule: Q01DX Z (ip), vehicle: saline 108 % of control

CC(C)C(=O)[O][Pb]([c]1ccccc1)([c]1ccccc1)[c]1ccccc1
inactive: dose: 12.5 mg/kg/injection, schedule: Q04DX002 (ip), vehicle: Klucel (hydroxypropylcellulose) (HPC) 101 % of control | dose: 25.0 mg/kg/injection, schedule: Q04DX002 (ip), vehicle: Klucel (hydroxypropylcellulose) (HPC) 97 % of control | dose: 50.0 mg/kg/injection, schedule: Q04DX002 (ip), vehicle: Klucel (hydroxypropylcellulose) (HPC) 97 % of control

Cc1nc2ccccc2c(C(=O)O)c1C
inactive: dose: 100.0 mg/kg/injection, schedule: Q04DX003 (ip), vehicle: saline 102 % of control | dose: 200.0 mg/kg/injection, schedule: Q04DX003 (ip), vehicle: saline 96 % of control | dose: 400.0 mg/kg/injection, schedule: Q04DX003 (ip), vehicle: saline 96 % of control

CN(C)C(=S)Oc1cc(Cl)c(Cl)cc1Cl
inactive: [1] 96 % of control | [11] 95 % of control | [12] 90 % of control

CC1(C)OC2C(CNS(C)(=O)=O)OC(n3cnc4c(N)ncnc43)C2O1 (configuration not stated)
inactive: [2] 102 % of control | [3] 98 % of control | [4] 101 % of control

COc1ccc(C(=O)NC(=O)Nc2ccccc2)cc1
inactive: dose: 15.0 mg/kg/injection, schedule: Q01DX001 (ip), vehicle: saline 97 % of control | dose: 30.0 mg/kg/injection, schedule: Q01DX001 (ip), vehicle: saline 91 % of control | dose: 60.0 mg/kg/injection, schedule: Q01DX001 (ip), vehicle: saline 92 % of control

CN(C)/C(N)=N/S(=O)(=O)c1ccc(C#N)cc1
inactive: [2] 88 % of control | [3] 96 % of control | [4] 94 % of control

O=C1CC(c2ccc(O)cc2)CC(=O)C1C(=O)Nc1ccccc1 (configuration not stated)
inactive: dose: 100.0 mg/kg/injection, schedule: Q01DX001 (ip), vehicle: other 101 % of control | dose: 200.0 mg/kg/injection, schedule: Q01DX001 (ip), vehicle: other 100 % of control | dose: 400.0 mg/kg/injection, schedule: Q01DX001 (ip), vehicle: other 97 % of control

O=C(CCN1CCCC1)c1ccc2ccccc2c1
inactive: dose: 25.0 mg/kg/injection, schedule: Q04DX002 (ip), vehicle: saline with Tween-80 97 % of control | dose: 50.0 mg/kg/injection, schedule: Q04DX002 (ip), vehicle: saline with Tween-80 97 % of control | dose: 100.0 mg/kg/injection, schedule: Q04DX002 (ip), vehicle: saline with Tween-80 100 % of control and 86 % of control

CC(C)C12OC1CC1C3(C)CCCC(C)(C(=O)O)C3CCC13OC32 (configuration not stated)
inactive: [5] 98 % of control | [6] 90 % of control | [7] 96 % of control | [8] 90 % of control | [9] 93 % of control | [10] 90 % of control
